According to patent US8568801B2, “Solid oral sensorial products including stain inhibitor” (Philip Morris USA Inc., priority 2010, dated 2013):

Columns and labels:
[1] = Hydroxyapatite powder soaked in Burley tobacco extract with various amounts of sodium hexametaphosphate; conditions: FIG. 13
Experimental: To determine the effect of various amount of sodium hexametaphosphate, 5.0 grams of Burley tobacco was soaked in 100 mL water at room temperature for 1 hour to form a first extract. A second extract was formed by soaking 5.0 grams of Burley tobacco and […] sodium hexametaphosphate in 100 mL water at room temperature for 1 hour. A third extract was formed by soaking 5.0 grams of Burley tobacco and 0.252 g sodium hexametaphosphate in 100 mL water at room temperature for 1 hour. A fourth extract was formed by soaking 5.0 grams of Burley tobacco and 0.047 g sodium hexametaphosphate in 100 mL water at room temperature for 1 hour. Each extract was then filtered through #2 Watman filter paper. Approximately […] of hydroxyapatite powder was placed in the bottom of each of four centrifuge vials. 14 mL of the first extract was placed in the first vial, 14 mL of the second extract was placed in the second vial, 14 mL of the third extract was placed in the third vial and 14 mL of the fourth extract was placed in the fourth vial. The powder in each vial was allowed to soak for about 1 hour with agitation and then the powder was decanted, washed in distilled water at least three times and decanted each time.

[2] = Cow's teeth staining by extract of tea pouches, simulating 6 months of use; conditions: extract of pouches with 5.0 g tea and 50 mg sodium hexametaphosphate; 5 soaks of 7 minutes at about 100° F. with brushing; FIG. 9
Experimental: (§1) To determine the effectiveness of the phosphate containing stain inhibitor on oral sensorial products including tea, a test was performed to simulate 6 months of use of the oral sensorial products. About 187.5 mL artificial saliva and 75 pouches containing 5.0 g tea were placed in a bag in a water bath at 100° F. for 3 minutes. The artificial saliva was formed as part of a 1000 mL batch including 4.20 g sodium bicarbonate, 0.50 g sodium chloride and 0.20 g potassium carbonate. The bag was removed and rolled for about 2 minutes and then returned to the water bath for 10 minutes. This process was repeated four more times (five total). The pouches were then removed from the bag and 50 mL of the extract was placed in a 250 mL crystallization beaker. Cow's teeth were then immersed in the 50 mL of extract, the beaker was covered with polypropylene wrap, and the teeth were soaked for 7 minutes at about 100° F. The teeth were removed from the beaker and rinsed with reverse osmosis water for about 5 seconds. The front enamel of each tooth was brushed with 1 g of Crest® Cavity Protection toothpaste for 30 seconds, rinsed with reverse osmosis water and covered to prevent exposure to light. This regime was repeated 4 additional times (5 total). A second extract was made using pouches including 5.0 g tea and 50 mg sodium hexametaphosphate. […]

[3] = Hydroxyapatite powder soaked in tea extract; conditions: 5.0 g tea and 50 mg sodium hexametaphosphate in 100 mL water, room temperature, about 1 hour; FIG. 12
Experimental: A second extract was formed by soaking 5.0 g of tea in 100 mL water at room temperature for about 1 hour. Each extract was then filtered through #2 Watman filter paper. Approximately 152 mg of hydroxyapatite powder was placed in the bottom of each of two centrifuge vials. 14 mL of the first extract was placed in one vial and 14 mL of the second extract was placed in the second vial.

[4] = Hydroxyapatite powder washed in phosphate, then soaked in Burley tobacco extract; conditions: compared with unwashed HAP powder and with HAP powder first washed in dibasic sodium phosphate; FIG. 11
[5] = Cow's teeth staining by extract of Burley tobacco pouches; conditions: as printed, the tobacco-only tooth is the darker one; inhibitor extract from 50 mg sodium hexametaphosphate and 5.0 g Burley tobacco; 5 soaks; FIG. 10
Experimental: as §1, with “inhibitor on solid oral sensorial” for “inhibitor on oral sensorial”, “products including tobacco, 187.5 mL” for “products including tea, a test was performed to simulate 6 months of use of the oral sensorial products. About 187.5 mL”, “5.0 g Burley tobacco were placed” for “5.0 g tea were placed”, “of the Burley tobacco extract was” for “of the extract was”, “5.0 g Burley tobacco and 50” for “5.0 g tea and 50”

For `O=P1([O-])OP(=O)([O-])OP(=O)([O-])OP(=O)([O-])OP(=O)([O-])OP(=O)([O-])O1.[Na+].[Na+].[Na+].[Na+].[Na+].[Na+]` [sodium hexametaphosphate], which “color of powders soaked in extracts with larger amounts of sodium hexametaphosphate compared with smaller amounts” value ([1]; 25.080 g, 0.252 g and 0.047 g sodium hexametaphosphate with 5.0 g Burley tobacco in 100 mL water) is on record?
The value was “lighter in color”.

What about the “color of powder soaked in Burley tobacco extract alone compared with powders soaked in extracts including sodium hexametaphosphate” value ([1]; as printed, the tobacco-only powder is the darker one, 5.0 g Burley tobacco with 25.080 g, 0.252 g or 0.047 g sodium hexametaphosphate in 100 mL water) of the same molecule?
Its value is “visibly darker”.

And the “color of cow's teeth exposed to sodium hexametaphosphate and tea compared with teeth exposed to tea alone” value [2]?
Its value is “noticeably lighter in color”.

What about the “color of HAP powder soaked in extract of tea and sodium hexametaphosphate compared with tea alone” value [3] of the same molecule?
The value was “visibly whiter”.

What about the “color of HAP powder first washed in the phosphate and then soaked in Burley tobacco extract” value [4] of the same molecule?
The value was “visibly whiter”.

What about the “color of cow's tooth soaked in Burley tobacco extract alone compared with tooth soaked in extract with sodium hexametaphosphate” value [5] of the same molecule?
The value was “visibly darker”.
